Paper PMC13252604, “First Generation Proteolysis Targeting Chimeras (PROTACs) for the Treatment of Progeria” (Advanced Science, 2026)

Columns and labels:
[1] = test system: Hutchinson‐Gilford Progeria Syndrome; conditions: progeria patients; cited from earlier work
progerin = target: T1, progerin (Mus musculus, UniProt P48678, DEL608-657); assay: Progerin degradation, immunoblot in Lmna^G609G/G609G fibroblasts; type: cell-based; conditions: Lmna^G609G/G609G fibroblasts, 5 µM, 8 h, vs vehicle
T1 construct: endogenous in cells; host or cells: immortalized (SV40-LT) fibroblasts from Lmna G609G/G609G mice
T1 sequence (P48678 with tags, fused parts or gaps DEL608-657 limits assumed): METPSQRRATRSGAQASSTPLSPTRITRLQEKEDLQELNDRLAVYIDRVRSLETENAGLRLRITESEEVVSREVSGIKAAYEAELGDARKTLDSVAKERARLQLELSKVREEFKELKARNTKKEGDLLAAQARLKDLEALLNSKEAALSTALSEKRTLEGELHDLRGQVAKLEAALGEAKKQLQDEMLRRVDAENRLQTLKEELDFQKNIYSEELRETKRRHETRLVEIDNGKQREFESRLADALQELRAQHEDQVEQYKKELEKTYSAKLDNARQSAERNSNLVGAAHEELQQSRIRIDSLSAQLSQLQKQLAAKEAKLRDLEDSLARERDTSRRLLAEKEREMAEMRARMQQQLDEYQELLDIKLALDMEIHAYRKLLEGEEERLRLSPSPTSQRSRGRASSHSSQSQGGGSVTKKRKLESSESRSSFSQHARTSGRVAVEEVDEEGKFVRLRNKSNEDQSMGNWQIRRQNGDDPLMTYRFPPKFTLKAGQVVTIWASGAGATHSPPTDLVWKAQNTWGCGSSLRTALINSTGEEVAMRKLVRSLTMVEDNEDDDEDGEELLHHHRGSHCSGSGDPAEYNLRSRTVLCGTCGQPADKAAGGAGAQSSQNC
Protocol: The ability of compounds 2‐6 to degrade progerin was evaluated in Lmna^G609G/G609G fibroblasts, derived from the progeria mouse model that most closely replicates the human disease phenotype. Lamin A/C antibody was used for immunodetection due to its prevalent use in this context, enabling simultaneous visualization of both lamins and progerin [15].
FIGURE 2 (A) Representative cropped immunoblots and quantification of progerin from Lmna^G609G/G609G fibroblasts. Cells were incubated with vehicle or indicated compound at 5 µM for 8 h. MW, molecular weight (in kDa) markers. (B, C) Concentration and time‐dependency of the reduction of progerin levels induced by compounds 2 and 9. Graphs show quantification of progerin in Lmna^G609G/G609G fibroblasts (immunoblots are shown in Supporting Figure S1). Cells were incubated with vehicle or the indicated compound concentration for 8 h. For time‐course experiments, cells were incubated with vehicle or indicated compound at 5 µM. Bar graphs show mean±sem of 3 independent experiments performed in duplicate. Data were analysed using one‐way ANOVA followed by Dunnett's post–hoc test comparing all groups to the vehicle; ^*, p < 0.05. […]
4. Cell lines and culture.
Progeroid mouse fibroblasts, kindly donated by Prof. Carlos López Otín (Oviedo University, Spain), were isolated from LmnaG609G/G609G mice[19] and wild-type (WT) littermates and immortalized by retroviral transduction with SV40 large T antigen (SV40-LT). Since LmnaG609G/G609G mouse represents the most suitable and widely accepted model of HGPS, as it most faithfully recapitulates the molecular and phenotypic features of the human disease, its use in this study is fully justified. Moreover, although this cell […]
cells have been extensively validated by additional independent studies.[15, 65, 66] […]
experiments, nor does it affect the conclusions presented in our study.
Mouse fibroblasts were grown in Dulbecco’s modified eagle medium (DMEM, Gibco) supplemented with 10% heat inactivated fetal bovine serum (FBS, Gibco), 50 U/mL penicillin, and 50 μg/mL streptomycin (Invitrogen). Human progeroid HGADFN167 LmnaG608G/G608G (G608G) or or healthy HGADFN168 Lmna+/+ (WT) fibroblasts, were obtained from The Progeria Research Foundation (RRIDs CVCL_1Y92 and CVCL_1Y93, respectively) and cultured in DMEM with 20% heat inactivated FBS, 50 U/mL penicillin and 50 μg/mL streptomycin. All cells were incubated in a humidified atmosphere at 37 °C in the presence of 5% CO2 and were confirmed to be free of mycoplasma contamination. […]
Measurements were performed in triplicate, and each experiment was repeated at least three times. The viability values were calculated from the percentage of viable cells with respect to 100% viability of the vehicle-treated cells.
6. Immunoblot and immunocytofluorescence analysis.
Mouse or human progeroid cells were seeded at density of […] or 5 x 10^4 cells respectively on 12-well plates and incubated for 24 h in DMEM medium. For proteosome-dependency assays, cells were pre-treated either with the proteasome inhibitor (S)-MG132 (20 µM) or with the NEDD8-activating enzyme inhibitor MLN4924 (5 µM) for 2 h prior to […]
compound exposure. Then, cells were incubated with compound of interest or DMSO for the appropriate time and lysed with cold laemmli buffer (50 mM Tris-HCl pH 7.4, 150 mM NaCl, 1% Igepal) with a mixture of protease and phosphatase inhibitors (1 mM PMSF, 10 mM NaF, 0.3 mg/mL CalyculinA, 1 mM sodium orthovanadate, 10 mM β-glycerol-phosphate; all from Sigma-Aldrich and complete protease inhibitor cocktail, from Roche). Proteins were denatured at 95 ᵒC for 5 min and the lysates were immediately used or stored at -20 ᵒC until use. Samples were analysed by electrophoresis in polyacrylamide gels (All Kd SDS-PAGE, BioRad) and the proteins transferred to nitrocellulose membranes (GE Healthcare, Amersham). After 1 h of incubation in blocking buffer [20 mM Tris pH 7.6, 150 mM NaCl and 0.1% Tween-20 (TBS-T) with […]

| Structure (SMILES) | effect on key phenotypic hallmarks of progeria [1] | extension of average life expectancy [1] | progerin levels (immunoblot quantification) (progerin) |
| --- | --- | --- | --- |
| NC(=O)N1CCC(CC(=O)N2CCC([C@H]3c4ncc(Br)cc4CCc4cc(Cl)cc(Br)c43)CC2)CC1 [lonafarnib] | does not improve some of the key phenotypic hallmarks of progeria | up to 33% |  |
| CC1(C)Oc2cc3oc(=O)ccc3cc2C[C@@H]1OC(=O)CCCCCOc1ccc(C2CCC(=O)NC2=O)cc1 (some centres unmarked) [compound 10] |  |  | neither the glutarimide derivative 10 nor the VHL‐ligand‐containing compound 11 led to a significant reduction in progerin levels |
| CN1C(=O)CCC(N2C(=O)c3cccc(NCCCCCC(=O)O[C@H]4Cc5cc6ccc(=O)oc6cc5OC4(C)C)c3C2=O)C1=O (some centres unmarked) [compound 13] |  |  | ineffective in lowering progerin levels |
| Cc1ncsc1-c1ccc(CNC(=O)[C@@H]2C[C@@H](O)CN2C(=O)[C@@H](NC(=O)CCCCC(=O)O[C@H]2Cc3cc4ccc(=O)oc4cc3OC2(C)C)C(C)(C)C)cc1 [compound 11] |  |  | neither the glutarimide derivative 10 nor the VHL‐ligand‐containing compound 11 led to a significant reduction in progerin levels |
